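The compound was tested at five concentrations on cells cultured in 96-well plates, with a 48-hour exposure period. GI50: concentration for 50% inhibition of growth. TGI marks complete inhibition of growth.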
What was measured:
Assay in all cases: growth of human tumour cells (NCI), 48 h
[1] = test system: SK-MEL-2 melanoma
[2] = test system: NCI-H522 lung
[3] = test system: HOP-62 NSCLC
[4] = test system: DU-145 prostate
[5] = test system: SW-620 colon
[6] = test system: NCI-H23 lung
[7] = test system: 786-0 renal
[8] = test system: IGROV1 ovarian
[9] = test system: M14 melanoma
[10] = test system: UACC-257 melanoma

`C=CC(=O)N1CCC(C2CCNc3c(C(N)=O)c(-c4ccc(Oc5ccccc5)cc4)nn32)CC1` (stereo not given) was tested, and the GI50 [1] was 20.3 µM, the TGI [1] was 40.4 µM and the GI50 [2] was 4.93 µM. It also gave a TGI [2] of 22.7 µM, a GI50 [3] of 19.5 µM and a TGI [3] of 67.7 µM. For the same compound, the GI50 [4] was 11.6 µM, the TGI [4] was over 100 µM and the GI50 [5] was 31.8 µM. The TGI [5] was over 100 µM, the GI50 [6] was 16.5 µM and the TGI [6] was 39.9 µM. It also gave a GI50 [7] of 12.2 µM, a TGI [7] of over 100 µM and a GI50 [8] of 0.796 µM. It also gave a TGI [8] of 16.9 µM, a GI50 [9] of 15.4 µM and a TGI [9] of 33.1 µM. It also gave a GI50 [10] of 20.3 µM and a TGI [10] of 51.2 µM.
With `CC1=CC(=O)[C@@H](O)[C@]2(C)[C@H]3[C@@]4(O)OC[C@]35[C@H]([C@@H](C)[C@H]4O)[C@@H](O)C(=O)O[C@@H]5C[C@@H]12` the TGI [1] was 1.16 µM, the TGI [2] was 0.7 µM and the TGI [3] was 1.08 µM. For the same compound, the TGI [4] was 1.69 µM, the TGI [5] was 6.78 µM and the TGI [6] was 1.7 µM. The TGI [7] was 2.13 µM, the TGI [8] was 3.42 µM and the TGI [9] was 1.04 µM. For the same compound, the TGI [10] was 1.77 µM.
In the case of `O=c1c2ccccc2sc2cccc(NCCCN3CCN(CCCNc4cccc5sc6ccccc6c(=O)c45)CC3)c12`, the TGI [1] is reported as over 100 µM, the TGI [2] is reported as over 100 µM and the TGI [3] is reported as over 100 µM. The TGI [4] was over 100 µM, the TGI [5] was over 100 µM and the TGI [6] was over 100 µM. For the same compound, the TGI [7] was over 100 µM, the TGI [8] was over 100 µM and the TGI [9] was over 100 µM. For the same compound, the TGI [10] was over 100 µM.
Work on `COc1ccncc1C#Cc1cncc(C(=O)Nc2ccc(CN3CCN(C)CC3)c(C(F)(F)F)c2)c1` yielded a GI50 [1] of 13.3 µM, a TGI [1] of 48.3 µM and a GI50 [2] of 11.4 µM. The TGI [2] was 46 µM, the GI50 [3] was 20.9 µM and the TGI [3] was over 100 µM. It also gave a GI50 [4] of 25.7 µM, a TGI [4] of over 100 µM and a GI50 [5] of 14.6 µM. The TGI [5] was 64.3 µM, the GI50 [6] was 16.3 µM and the TGI [6] was over 100 µM. The GI50 [7] was 35.8 µM, the TGI [7] was over 100 µM and the GI50 [8] was 8.57 µM. For the same compound, the TGI [8] was 84.2 µM, the GI50 [9] was 10.1 µM and the TGI [9] was 39.6 µM. For the same compound, the GI50 [10] was 21.5 µM and the TGI [10] was over 100 µM.
Compound `C=CCCCCCCCCCCC1(O)C=CC2=[N+](CCCCCN=C(N)N)CCCN21` (stereo not given) has a GI50 [1] of 21.3 µM, a TGI [1] of 47.2 µM and a GI50 [2] of 3.6 µM. The TGI [2] was 18.4 µM, the GI50 [3] was 8.68 µM and the TGI [3] was 32 µM. It also gave a GI50 [4] of 12.2 µM, a TGI [4] of 26.6 µM and a GI50 [5] of 8.11 µM. For the same compound, the TGI [5] was 24.2 µM, the GI50 [6] was 12.9 µM and the TGI [6] was 32.3 µM. The GI50 [7] was 7.47 µM, the TGI [7] was 29.8 µM and the GI50 [8] was 10.9 µM. The TGI [8] was 30.1 µM, the GI50 [9] was 22.8 µM and the TGI [9] was over 51.5 µM. It also gave a GI50 [10] of 22.7 µM and a TGI [10] of over 55.7 µM.
For `Cc1csc(Nc2nc(-c3cccc(Br)c3)nc(C(Cl)(Cl)Cl)n2)n1`, the GI50 [1] was over 100 µM, the TGI [1] was over 100 µM and the GI50 [2] was over 100 µM. The TGI [2] was over 100 µM, the GI50 [3] was 2.21 µM and the TGI [3] was over 28.7 µM. For the same compound, the GI50 [4] was 0.419 µM, the TGI [4] was 3.21 µM and the GI50 [5] was 3.29 µM. For the same compound, the TGI [5] was over 100 µM, the GI50 [6] was over 100 µM and the TGI [6] was over 100 µM. The GI50 [7] was 7.75 µM, the TGI [7] was over 100 µM and the GI50 [8] was over 100 µM. For the same compound, the TGI [8] was over 100 µM, the GI50 [9] was over 100 µM and the TGI [9] was over 100 µM. For the same compound, the GI50 [10] was 3.34 µM and the TGI [10] was over 100 µM.
Compound `COC12C=C/C(=C(/C(=O)OCc3ccncc3)C(=O)CCCCCCCCC3(OC)C=C/C(=C(/C(=O)OCc4ccncc4)C(=O)CCCCCCCC1)O3)O2` has a GI50 [1] of 1.08 µM, a TGI [1] of 3.05 µM and a GI50 [2] of 0.564 µM. The TGI [2] was 1.76 µM, the GI50 [3] was 1.18 µM and the TGI [3] was 5.59 µM. For the same compound, the GI50 [4] was 0.709 µM, the TGI [4] was 2.29 µM and the GI50 [5] was 0.227 µM. For the same compound, the TGI [5] was 1.26 µM, the GI50 [6] was 0.178 µM and the TGI [6] was 0.762 µM. It also gave a GI50 [7] of 0.354 µM, a TGI [7] of 1.19 µM and a GI50 [8] of 0.316 µM. The TGI [8] was 2.14 µM, the GI50 [9] was 0.17 µM and the TGI [9] was 0.574 µM. For the same compound, the GI50 [10] was 1.14 µM and the TGI [10] was 4.49 µM.
In the case of `Cn1cnc([N+](=O)[O-])c1S(=O)(=O)Oc1ccccc1`, the GI50 [1] is reported as 15.5 µM, the TGI [1] is reported as 40.9 µM and the GI50 [2] is reported as 0.759 µM. It also gave a TGI [2] of 2.3 µM, a GI50 [3] of 19.3 µM and a TGI [3] of 39 µM. For the same compound, the GI50 [4] was 5.6 µM, the TGI [4] was 17 µM and the GI50 [5] was 1.92 µM. It also gave a TGI [5] of 4.34 µM, a GI50 [6] of 15 µM and a TGI [6] of 37.9 µM. It also gave a GI50 [7] of 25.1 µM, a TGI [7] of 55.6 µM and a GI50 [8] of 2.21 µM. For the same compound, the TGI [8] was 4.76 µM, the GI50 [9] was 11.1 µM and the TGI [9] was 27.3 µM. For the same compound, the GI50 [10] was 3.84 µM and the TGI [10] was 16.3 µM.

From PubChem BioAssay (NCI)
